This is an account of results in patent publication EP0835871B1, “Benzo [b] thiophene compounds, intermediates, formulations, and methods” (ELI LILLY AND COMPANY, priority 1996, dated 1998).

As usually defined, the IC50 is the concentration needed to halve the response being measured.

Data set [1] concerns female Sprague Dawley rats. Put plainly: Uterine wet weight in the post-menopausal (ovariectomized rat) model, 4 days of oral dosing. Format: in vivo. Particulars: % increase versus the ovariectomized controls, * p<0.05. The procedure: (§1) In the examples illustrating the methods, a post-menopausal model was used in which effects of different treatments upon circulating lipids were determined.
(§2) Seventy-five day old female Sprague Dawley rats (weight range of 200 to 225g) are obtained from Charles River Laboratories (Portage, MI). The animals are either bilaterally ovariectomized (OVX) or exposed to a Sham surgical procedure at Charles River Laboratories, and then shipped after one week. Upon arrival, they are housed in metal hanging cages in groups of 3 or 4 per cage and have ad libitum access to food (calcium content approximately 0.5%) and water for one week. Room temperature is maintained at 22.2° ± 1.7° C with a minimum relative humidity of 40%. The photoperiod in the room is 12 hours light and 12 hours dark.
(§3) Dosing Regimen Tissue Collection. After a one week acclimation period (therefore, two weeks post-OVX) daily dosing with test compound is initiated. 17α-ethynyl estradiol or the test compound are given orally, unless otherwise stated, as a suspension in 1% carboxymethylcellulose or dissolved in 20% cyclodextrin. Animals are dosed daily for 4 days. Following the dosing regimen, animals are weighed and anesthetized with a ketamine: Xylazine (2:1, V:V) mixture and a blood sample is collected by cardiac puncture. The animals are then sacrificed by asphyxiation with CO2, the uterus is removed through a midline incision, and a wet uterine weight is determined.

For another data set, the system named is Serum cholesterol. Put plainly: Serum cholesterol analysis in ovariectomized rats. It is filed as in vivo. The settings on record: decrease versus ovariectomized controls, * p<0.05. The procedure:
as §1, §2, §3
Cholesterol Analysis. Blood samples are allowed to clot at ambient temperature for 2 hours, and serum is obtained following centrifugation for 10 minutes at 3000 rpm. Serum cholesterol is determined using a Boehringer Mannheim Diagnostics high performance cholesterol assay. Briefly, the cholesterol is oxidized to cholest-4-en-3-one and hydrogen peroxide. The hydrogen peroxide is then reacted with phenol and 4-aminophenazone in the presence of peroxidase to produce a p-quinone imine dye, which is read spectrophotemetrically at 500 nm. Cholesterol concentration is then calculated against a standard curve.

Data set [2] relates to Uterine Eosinophil Peroxidase (EPO). Put plainly: Uterine Eosinophil Peroxidase (EPO) Assay in ovariectomized rats. Further details: unit not given here. It is filed as in vivo. Particulars: Vmaximum, * p<0.05.
From the text: as §2, §3
Uterine Eosinophil Peroxidase (EPO) Assay. Uteri are kept at 4° C until time of enzymatic analysis. The uteri are then homogenized in 50 volumes of 50 mM Tris buffer (pH - 8.0) containing 0.005% Triton X-100. Upon addition of 0.01% hydrogen peroxide and 10 mM o-phenylenediamine (final concentrations) in Tris buffer, increase in absorbance is monitored for one minute at 450 nm. The presence of eosonophils in the uterus is an indication of estrogenic activity of a compound. The maximal velocity of a 15 second interval is determined over the initial, linear portion of the reaction curve.

Data set [3] concerns MCF-7 breast adenocarcinoma cells (ATCC HTB 22). Put plainly: MCF-7 Proliferation Assay (tritiated thymidine uptake). Format: cell-based. Particulars: MCF-7 cells, 48 hours with drug, tritiated thymidine pulse 4 hours. How it is done: MCF-7 Proliferation Assay
MCF-7 breast adenocarcinoma cells (ATCC HTB 22) were maintained in MEM (minimal essential medium, phenol red-free, Sigma, St. Louis, MO) supplemented with 10% fetal bovine serum (FBS) (V/V), L-glutamine (2 mM), sodium pyruvate (1 mM), HEPES {(N-[2-hydroxyethyl]piperazine-N'-[2-ethanesulfonic acid] 10 mM}, non-essential amino acids and bovine insulin (1 ug/mL) (maintenance medium). Ten days prior to assay, MCF-7 cells were switched to maintenance medium supplemented with 10% dextran coated charcoal stripped fetal bovine serum (DCC-FBS) assay medium) in place of 10% FBS to deplete internal stores of steroids. MCF-7 cells were removed from maintenance flasks using cell dissociation medium [Ca++/Mg++ free HBSS (phenol red-free) supplemented with 10 mM HEPES and 2 mM EDTA]. Cells were washed twice with assay medium and adjusted to 80,000 cells/mL. Approximately […] (8,000 cells) were added to flat-bottom microculture wells (Costar 3596) and incubated at 37° C in a 5% CO2 humidified incubator for 48 hours to allow for cell adherence and equilibration after transfer. Serial dilutions of drugs or DMSO as a diluent control were prepared in assay medium and […] to triplicate microcultures followed by […] assay medium for a final volume of […]. After an additional 48 hours at 37° C in a 5% CO2 humidified incubator, microcultures were pulsed with tritiated thymidine (1 µCi/well) for 4 hours. Cultures were terminated by freezing at -70° C for 24 hours followed by thawing and harvesting of microcultures using a Skatron Semiautomatic Cell Harvester. Samples were counted by liquid scintillation using a Wallac BetaPlace β counter. The compounds of formula I are active and potent in inhibiting the tumor cell growth, see: Table 2.

Regarding `C#C[C@]1(O)CC[C@H]2[C@@H]3CCc4cc(O)ccc4[C@H]3CC[C@@]21C` [EE2, 17-α-Ethynyl-estradiol, reference compound], the “Uterine Wt. (% Inc.)” value in data set [1] (dose printed as 0. mg/kg PO) is given as 171.2* %. For the same compound, the “Serum Cholesterol (% Dec.)” value with Serum cholesterol (dose printed as 0. mg/kg PO) is 85.1* %. Also, the “Uterine EPO (Vmax)” value in data set [2] (dose printed as 0. mg/kg PO) was 142.4*.

Turning to `CCCCOC(=O)c1ccc2c(C(=O)c3ccc(OCCN4CCCCC4)cc3)c(-c3ccc(O)cc3)sc2c1` [Example 2, [2-(4-Hydroxyphenyl)-6-n-butoxycarbonylbenzo[b]thien-3-yl][4-[2-(1-piperidinyl)ethoxy]phenyl]methanone], the “Uterine Wt. (% Inc.)” value in data set [1] (0.1 mg/kg PO) is on record as 19.4%; in data set [1] (1 mg/kg PO), 16.8%; in data set [1] (10 mg/kg PO), 52.5* %. The “Serum Cholesterol (% Dec.)” value with Serum cholesterol (0.1 mg/kg PO) is on record as -1.2%; in the data set with Serum cholesterol (1 mg/kg PO), 26.7%; in the data set on Serum cholesterol (10 mg/kg PO) it was 55.6* %. In addition, the “Uterine EPO (Vmax)” value is on record as 2.4 in data set [2] (0.1 mg/kg PO), 0.0 in data set [2] (1 mg/kg PO) and 4.8 in data set [2] (10 mg/kg PO). The same compound yielded an IC50 in data set [3] (Homo sapiens, MCF7) of 45 nM.

`C#Cc1ccc2c(C(=O)c3ccc(OCCN4CCCCC4)cc3)c(-c3ccc(O)cc3)sc2c1` [Example 6, [2-(4-Hydroxyphenyl)-6-ethynylbenzo[b]thien-3-yl][4-[2-(1-piperidinyl)ethoxy]phenyl]methanone]: the “Uterine Wt. (% Inc.)” value in data set [1] (0.1 mg/kg PO) is 14.3%; in data set [1] (1 mg/kg PO), 27.8%; in data set [1] (10 mg/kg PO), 22.5%. In addition, the “Serum Cholesterol (% Dec.)” value is given as 39.4* % with Serum cholesterol (0.1 mg/kg PO), 58.7* % in the data set with Serum cholesterol (1 mg/kg PO) and 65.8* % in the data set on Serum cholesterol (10 mg/kg PO). For the same compound, the “Uterine EPO (Vmax)” value in data set [2] (0.1 mg/kg PO) is recorded as 3.9; in data set [2] (1 mg/kg PO), 4.8; in data set [2] (10 mg/kg PO), 4.8. Further, half-maximal inhibition in data set [3] (Homo sapiens, MCF7) (IC50) was put at 20 nM.

For `COC(=O)c1ccc2c(C(=O)c3ccc(OCCN4CCCCC4)cc3)c(-c3ccc(O)cc3)sc2c1.Cl` [Example 1, [2-(4-Hydroxyphenyl)-6-methoxycarbonylbenzo[b]thien-3-yl][4-[2-(1-piperidinyl)ethoxy]phenyl]methanone Hydrochloride], the “Uterine Wt. (% Inc.)” value in data set [1] (0.1 mg/kg PO) was 46.9* %; in data set [1] (1 mg/kg PO), 19.1%; in data set [1] (10 mg/kg PO), 45.2* %. Besides, the “Serum Cholesterol (% Dec.)” value was -8.6% in the data set on Serum cholesterol (0.1 mg/kg PO), 42.5* % in the data set with Serum cholesterol (1 mg/kg PO) and 56.1* % with Serum cholesterol (10 mg/kg PO). Besides, the results for the “Uterine EPO (Vmax)” value in data set [2] (0.1 mg/kg PO), in data set [2] (1 mg/kg PO) and in data set [2] (10 mg/kg PO) were 4.5, 4.8 and 7.5, respectively. This compound also yielded a 50% inhibitory concentration (IC50) in data set [3] (Homo sapiens, MCF7) of 40 nM.

As to `CC(C)COC(=O)c1ccc2c(C(=O)c3ccc(OCCN4CCCCC4)cc3)c(-c3ccc(O)cc3)sc2c1` [Example 3], the entries for the “Uterine Wt. (% Inc.)” value in data set [1] (0.1 mg/kg PO), in data set [1] (1 mg/kg PO) and in data set [1] (10 mg/kg PO) were 11.8%, 21.7% and 47.1* %, respectively. Besides, the entries for the “Serum Cholesterol (% Dec.)” value with Serum cholesterol (0.1 mg/kg PO), in the data set on Serum cholesterol (1 mg/kg PO) and in the data set with Serum cholesterol (10 mg/kg PO) were -2.4%, 8.7% and 58.0* %, respectively. In addition, the “Uterine EPO (Vmax)” value is 3.3 in data set [2] (0.1 mg/kg PO), 3.3 in data set [2] (1 mg/kg PO) and 4.8 in data set [2] (10 mg/kg PO). The half-maximal inhibitory concentration (IC50) in data set [3] worked out at 45 nM.

For the compound `Cl.O=C(O)c1ccc2c(C(=O)c3ccc(OCCN4CCCCC4)cc3)c(-c3ccc(O)cc3)sc2c1` [Example 4, [2-(4-Hydroxyphenyl)-6-carboxybenzo[b]thien-3-yl][4-[2-(1-piperidinyl)ethoxy]phenyl]methanone Hydrochloride], the “Uterine Wt. (% Inc.)” value in data set [1] (0.1 mg/kg PO) is reported as 18.8%; in data set [1] (1 mg/kg PO), 27.2%; in data set [1] (10 mg/kg PO) it was 29.6* %. Further, the “Serum Cholesterol (% Dec.)” value in the data set with Serum cholesterol (0.1 mg/kg PO) is 0.6%; in the data set with Serum cholesterol (1 mg/kg PO) it was 10.4%; with Serum cholesterol (10 mg/kg PO), 44.9* %. Besides, the entries for the “Uterine EPO (Vmax)” value in data set [2] (0.1 mg/kg PO), in data set [2] (1 mg/kg PO) and in data set [2] (10 mg/kg PO) were 3.3, 3.0 and 3.6, respectively.

With `CC(=O)c1ccc2c(C(=O)c3ccc(OCCN4CCCCC4)cc3)c(-c3ccc(O)cc3)sc2c1` [Example 5, [2-(4-Hydroxyphenyl)-6-acetylbenzo[b]thien-3-yl][4-[2-(1-piperidinyl)ethoxy]phenyl]methanone], the “Uterine Wt. (% Inc.)” value in data set [1] (0.1 mg/kg PO) is 18.8%; in data set [1] (1 mg/kg PO), 51.8* %; in data set [1] (10 mg/kg PO), 69.4* %. The results for the “Serum Cholesterol (% Dec.)” value in the data set with Serum cholesterol (0.1 mg/kg PO), in the data set with Serum cholesterol (1 mg/kg PO) and in the data set with Serum cholesterol (10 mg/kg PO) were -6.3%, 20.4% and 45.4* %, respectively. In addition, the results for the “Uterine EPO (Vmax)” value in data set [2] (0.1 mg/kg PO), in data set [2] (1 mg/kg PO) and in data set [2] (10 mg/kg PO) were 1.2, 2.1 and 5.4, respectively. Besides, in data set [3] (Homo sapiens, MCF7), the IC50 came out at 60 nM.
